Test results from patent US6878690B2, “Compounds and methods” (PharmAxis Pty Ltd., priority 2000, dated 2005).
Several values for one entry are separate records, joined by “and”; a condition that tells them apart may be missing. Equal entries are not always repeated.

Key:
[1] = tested on: passively transferred EAE; experiment: Passively transferred EAE induced with encephalitogenic MBP-specific T cell line (Example 23); type: in vivo, Lewis rats
Experimental: In order to study the effect of the agents of the present invention in vivo on a disease caused by T lymphocyte migration into a specific tissue, experiments were performed in the Lewis rat model of passively transferred EAE. Here, myelin basic protein (MBP)-specific T lymphocyte cell lines were generated from the draining lymph nodes of Lewis rats that had been immunised with MBP in Freund's complete adjuvant essentially according to the method of Ben-Nun et al. (1981) as described in Example 8. Thus, in this manner, donor T lymphocytes were generated from female 10 to 12 week old Lewis rats weighing 150 to 200 g. These rats were injected intradermally in a footpad of each hind foot with an emulsion of Guinea pig myelin basic protein (MBP; prepared according to the method of Deibler et al., 1972; incorporated herein by reference) in Freund's complete adjuvant (0.05 ml). The adjuvant emulsion was prepared by emulsifying equal volumes of a mixture of light mineral oil (Sigma) and normal saline containing Guinea pig myelin basic protein (0.5 mg/ml) and Mycobacterium butyricum (4 mg/ml; Difco). Thus, the total dose per rat was 50 micrograms of MBP and 400 micrograms of M. butyricum. Approximately 11 days following injection, the rats were euthanased and the draining lymph nodes (popliteal and inguinal) removed aseptically by blunt dissection and placed into mixed lymphocyte culture medium. This medium was prepared in the normal fashion from Dulbecco's Modified Eagle's Medium (DMEM; GIBCO, Grand Island, N.Y.) supplemented with glucose, folic acid, L-asparagine, sodium bicarbonate, L-glutamine, sodium pyruvate, HEPES, 2-mercaptoethanol (5×10^−5 M), penicillin, streptomycin, neomycin, and 2% fetal calf serum. A single cell suspension was prepared from the lymph nodes in the usual manner by gently pushing the nodes through a stainless steel screen. The cells were washed twice in the culture medium and following this procedure, any red blood cells were lysed in the usual manner by treating with a solution of ammonium chloride, EDTA and sodium hydrogen carbonate (pH 7.3) and the preparation strained (Falcon 2350 cell strainer). The cells were washed again in the lymphocyte culture medium. All cell preparative steps were performed on ice. These cells were cultured asceptically for 72 hours at 37° C. in a humidified atmosphere containing 7.5% carbon dioxide at a concentration of 5 million cells per milliliter in the presence of MBP (0.06 mg/ml). The cells were collected and the lymphoblasts were isolated by centrifugation on a Ficoll (Pharmacia, Uppsala, Sweden) gradient in an identical manner to that described by Ben Nun et al. (1981). The fraction containing ≧90% lymphoblasts was cultured and propagated in Eagle's medium supplemented with 15% of a concanavalin A-stimulated lymphocyte supernatant to provide growth factors, 10% fetal calf serum, nonessential amino acids (Bio-Lab, Jerusalem, Israel); sodium pyruvate, 2-mercapto ethanol and antibiotics without added antigen. The cells were plated in 100 mm petri dishes at a concentration of 0.2 million cells/ml and replated every 3 or 4 days. Prior to transfer into Lewis recipients, the cells were restimulated in the presence of MBP (0.01 mg/ml) and irradiated syngeneic thymocytes for 4 days.
These cells were highly encephalitogenic sine as few as 500,000 cells were capable of inducing disease when injected into naïve Lewis rats. Thus, in a typical experiment a group of 5 female Lewis rats, approximately 9 weeks old, weighing 110±15 grams were anesthetised with diethyl ether and implanted with mini-osmotic pumps (Alzet 2002, Alza Corp., Palo Alto Calif., USA) containing phosphoric acid mono-(6-propyl-3,4,5-trihydroxy-tetrahydro-pyran-2-ylmethyl) ester mono sodium salt dissolved in normal saline at a concentration that delivered the drug at a rate of 45 mg/kg/rat/day. […]

[2] = tested on: passively transferred EAE; experiment: Passively transferred EAE induced with concanavalin A stimulated spleen lymphoblasts (Example 24); type: in vivo, Lewis rats; set-up: key to Clinical score - Treated, Mean: 0 = asymptomatic to 5 = hind limb paralysis; settings: 62 mg/kg/day subcutaneously; for Clinical score - Treated, Mean: group mean; for Clinical score - Treated: individual rats, scale 0 to 5
Experimental: In a similar type of experiment outlined in Example 20, and in order to study the effect of the agents of the present invention in vivo on a disease caused by T lymphocyte migration into a specific tissue, further experiments were performed in a Lewis rat model of passively transferred EAE. Here, myelin basic protein (MBP)-specific T lymphocytes were generated in spleens of Lewis rats that had been immunised with guinea pig MBP in Freund's complete adjuvant. Thus, in this manner donor T lymphocytes were generated from male 12-20 week old Lewis rats weighing 200 to 250 g. These rats were injected intradermally in a footpad of each hind foot with an emulsion of guinea pig myelin basic protein (MBP; prepared according to the method of Deibler et al., 1972; incorporated herein by reference) in Freund's complete adjuvant (0.1 ml). The adjuvant emulsion was prepared by emulsifying equal volumes of a mixture of 85% light mineral oil (0.8417 g/mL (Sigma)) plus 15% mannide monooleate (Sigma) containing Mycobacterium butyricum (4 mg/ml; Difco) and normal saline containing guinea pig myelin basic protein (0.25 mg/ml). Thus, the total dose per rat was 25 micrograms of MBP and 400 micrograms of M. butyricum. Ten days following injection, the rats were euthanased and the spleens removed aseptically by blunt dissection and placed into mixed lymphocyte culture medium. This medium was prepared in the normal fashion from Dulbecco's Modified Eagle's Medium (DMEM; GIBCO, Grand Island, N.Y.) supplemented with glucose (4 g/L), folic acid (6 mg/L), L-asparagine (36 mg/L), sodium bicarbonate (2 g/L), L-arginine (116 mg/L), L-glutamine (2 mM), sodium pyruvate (1 mM), HEPES (10 mM), 2-mercaptoethanol (5×10^−5 M), penicillin, streptomycin, neomycin, and 10% fetal calf serum. A single cell suspension was prepared from the spleens in the usual manner by gently pushing them through a stainless steel screen. The cells were washed twice and cultured asceptically for 72 hours at 37° C. in a humidified atmosphere containing 5% carbon dioxide at a concentration of 2 million cells per milliliter in the presence of concanavalin A (2 microgram/mL). The cells were collected and washed twice in Hanks balanced salt solution. Cells were resuspended in Hanks balanced salt solution and each recipient animal (10-12 weeks old female Lewis rats; 160-180 g) received 40-42.5 million lymphoblasts by lateral tail vein injection in a volume of 0.5 ml.
In a typical experiment 4-5 recipient rats were anesthetised with diethyl ether and implanted with mini-osmotic pumps (Alzet 2001, Alza Corp., Palo Alto Calif., USA) containing the test compound. A second group of 4 animals, the control group, under ether anesthesia, were implanted with Alzet 2001 pumps containing normal saline. Mini-osmotic pumps were implanted three days after cell transfer. Disease severity (clinical score) was scored on an arbitrary scale of severity ranging from 0 to 5 as follows: 0, asymptomatic; 1, flaccid distal half of tail; 2, entire tail flaccid; 3, ataxia, difficulty in righting reflex; 4, hind limb weakness; 5, hind limb paralysis. Mean maximum clinical scores were calculated and the disease index (DI) for each group was calculated as described in Example 20. The results of these experiments are outlined in Tables 6, 7 and 8.

[3] = tested on: DTH response to 2,4-dinitrofluorobenzene (DNFB); experiment: Delayed-type hypersensitivity (DTH) response to DNFB, ear swelling; type: in vivo, Balb/C mice
Source text: In the present Example, a murine model of Type IV hypersensitivity or delayed-type hypersensitivity (DTH) response to cutaneous contact with the chemical hapten 2,4-dinitrofluorobenzene (DNFB) (Aldrich Chemical Company Inc, USA) was used as a model to measure the anti-inflammatory effects of compounds of the present invention. Specific pathogen-free 8-12 week old female Balb/C mice, weighing 19-21 g, were sensitised in a similar manner to that described by Klimuk et al., (Klimuk et al., 1999) by applying a solution of DNFB (0.5% in acetone:olive oil (4:1, v/v); 30 microliters,) onto a 2 cm^2 shaved area of the abdomen. After 7 days, the animals were anesthetised with diethyl ether and 8 microliters of DNFB (0.35% in acetone:olive oil (4:1, v/v) was applied to the dorsal and ventral surfaces of the right pinna. Prior to regaining consciousness, the mice were implanted intraperitoneally with Alzet 2001 mini-osmotic pumps (Alza Corp., Palo Alto Calif., USA) containing phosphoric acid mono-[6-(3-hexyloxy-propyl)-3,4,5-trihydroxy-tetrahydro-pyran-2-ylmethyl] ester, sodium salt in normal saline. The dose delivered was 50 mg/kg/day. Control animals for this group received saline delivered in identical mini-osmotic pumps. A second experimental group of mice received phosphoric acid mono-[3-(3,4,5-trihydroxy-6-phosphonooxymethyl-tetrahydro-pyran-2-yl)-propyl] ester disodium salt via one-week delivery Alzet 2001 mini-osmotic pumps implanted intraperitoneally. This compound was delivered at a dose of 40 mg/kg/day. Control animals for this group received saline delivered in identical mini-osmotic pumps. In a third experiment a separate group of mice received (3,4,5-trihydroxy-6-phosphonooxymethyl-tetrahydro-pyran-2-yl)-acetic acid disodium salt via one-week delivery Alzet 2001 mini-osmotic pumps that were placed intraperitoneally. This compound was delivered at 45 mg/kg/day. The control group for this experiment received identical mini-osmotic pumps containing normal saline. In a fourth experiment a group of mice received 3-phenyl-2-[2-(3,4,5-trihydroxy-6-phosphonooxymethyl-tetrahydro-pyran-2-yl)-acetylamino]-propionic acid monosodium salt via one-week delivery Alzet 2001 mini-osmotic pumps that were placed subcutaneously. This compound was delivered at 62 mg/kg/day. The control group for this experiment received identical mini-osmotic pumps containing normal saline. In a fifth experiment a group of mice received hexanoic acid 3-(3,4,5-trihydroxy-6-phosphonooxymethyl-tetrahydro-pyran-2-yl)-propyl ester sodium salt via one-week delivery Alzet 2001 mini-osmotic pumps that were placed subcutaneously. This compound was delivered at 40 mg/kg/day. The control group for this experiment received identical mini-osmotic pumps containing normal saline.
Twenty-four hours after challenge the mice were lightly anesthetised with diethyl ether and the thickness of the left and right pinnae measured (in millimeters) using a dial gauge micrometer (Interapid, Switzerland). Care was taken to measure only the outer two thirds of the ear. The increase in ear thickness initiated by the DTH response was determined by subtracting the measurement of the left ear (untreated) from the right ear (challenged).
In Table 4, values in the columns labeled Left and Right are measurements of ear thickness in millimeters of the control and challenged ears respectively.

## CCCC1OC(COP(=O)([O-])O)C(O)C(O)C1O.[Na+] (centres unmarked) [phosphoric acid mono-(6-propyl-3,4,5-trihydroxy-tetrahydro-pyran-2-ylmethyl) ester mono sodium salt]
[1]; 45 mg/kg/rat/day, control group 5/5
  drug-treated animals that developed disease: 3/5
[1]; day 6 post lymphocyte transfer, histology
  lesions per section in the most affected animal: no more than 8 lesions per section
[1]; day 6 post lymphocyte transfer, histology, control approximately 15 lesions/section
  average lesions (per section) in spinal cord: 3.5 lesions
[1]; treated group, 45 mg/kg/rat/day, control group 2.0
  Mean maximum clinical score: 1.0
[1]; treated group, 45 mg/kg/rat/day, control group DI 160
  disease index (DI): 40

## O=C(CC1OC(COP(=O)(O)O)C(O)C(O)C1O)NC(Cc1ccccc1)C(=O)[O-].[Na+] (centres unmarked) [3-phenyl-2-[2-(3,4,5-trihydroxy-6-phosphonooxymethyl-tetrahydro-pyran-2-yl)-acetylamino]-propionic acid monosodium salt]
[2]; day 4
  Clinical score - Treated, Mean: 0
  Clinical score - Treated: 0
[2]; day 5
  Clinical score - Treated, Mean: 0.8
[2]; day 5, monosodium salt, 62 mg/kg/day
  Clinical score - Treated: 0 (2×) and 1 (2×) and 2
[2]; day 6
  Clinical score - Treated, Mean: 0.9
[2]; day 6, monosodium salt, 62 mg/kg/day
  Clinical score - Treated: 0 and 0.5 and 1 (2×) and 2
[2]; day 7
  Clinical score - Treated, Mean: 0.7
[2]; day 7, monosodium salt, 62 mg/kg/day
  Clinical score - Treated: 0 (2×) and 0.5 and 1 and 2
[2]; day 8
  Clinical score - Treated, Mean: 0.7
[2]; day 8, monosodium salt, 62 mg/kg/day
  Clinical score - Treated: 0 (2×) and 1 (2×) and 1.5
[2]; day 9
  Clinical score - Treated, Mean: 0.4
[2]; day 9, monosodium salt, 62 mg/kg/day
  Clinical score - Treated: 0 (3×) and 0.5 and 1
[2]; day 10
  Clinical score - Treated, Mean: 0.2
[2]; day 10, monosodium salt, 62 mg/kg/day
  Clinical score - Treated: 0 (3×) and 0.5 (2×)
[2]; treated group, control 1.5
  Mean maximum clinical score: clinical score 1.0
[2]; treated group, control DI 14.1
  DI (disease index): DI - 8.13 Mean maximum
[3]; 62 mg/kg/day subcutaneously, versus saline controls
  Mean percentage decrease in ear swelling in treated animals: Mean percentage decrease in ear swelling in treated animals: 49.3%
[3]; group mean, 62 mg/kg/day subcutaneously, saline control mean 0.134
  Mean Difference, Treated: 0.068 millimeters
[3]; individual mice, 62 mg/kg/day, mini-osmotic pump subcutaneously, 24 hours after challenge, monosodium salt
  Difference (right minus left ear), Treated: 0.11 millimeters and 0.09 millimeters and 0.06 millimeters and 0.04 millimeters (2×)
[3]; individual mice, challenged ear, 62 mg/kg/day, mini-osmotic pump subcutaneously, 24 hours after challenge, monosodium salt
  Right ear thickness, Treated: 0.33 millimeters and 0.31 millimeters and 0.29 millimeters and 0.25 millimeters (2×)
[3]; individual mice, control (unchallenged) ear, 62 mg/kg/day, mini-osmotic pump subcutaneously, 24 hours after challenge, monosodium salt
  Left ear thickness, Treated: 0.22 millimeters (2×) and 0.23 millimeters and 0.21 millimeters (2×)
